Consider twelve molecules from ChEMBL document CHEMBL4482312, “HTS Assay for Identifying Small Molecule Inhibitors of RAD52 and Uses of Identified Small Molecule Inhibitors for Treatment and Prevention of BRCA-Deficient Malignancies” (2018).

The source made the active and inactive calls. No cut-off for these calls is given here.

For series [1], the target named is T1, DNA repair protein RAD52 homolog (Homo sapiens, UniProt P43351).
T1 sequence (P43351 whole entry): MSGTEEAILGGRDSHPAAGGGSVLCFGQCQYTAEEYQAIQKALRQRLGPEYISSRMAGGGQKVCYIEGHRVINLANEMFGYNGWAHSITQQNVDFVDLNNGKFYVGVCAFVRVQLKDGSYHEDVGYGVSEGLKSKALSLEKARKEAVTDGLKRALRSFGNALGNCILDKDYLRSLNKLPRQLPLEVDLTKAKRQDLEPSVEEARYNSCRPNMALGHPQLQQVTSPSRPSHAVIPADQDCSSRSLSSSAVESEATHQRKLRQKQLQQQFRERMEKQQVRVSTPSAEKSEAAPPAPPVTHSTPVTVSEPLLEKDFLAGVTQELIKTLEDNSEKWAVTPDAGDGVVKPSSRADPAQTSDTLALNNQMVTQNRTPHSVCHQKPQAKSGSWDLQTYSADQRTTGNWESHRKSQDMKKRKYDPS
The series is described as follows: Inhibition of RAD52 (unknown origin) assessed as reduction in RAD52-ssDNA interaction using Cy3-dT30-Cy5 ssDNA by FRET assay.

Series [2] can be described thus: Solubility in 30 mM Tris-acetate buffer pH 7.5 in presence of 1 mM DTT at 10 uM. Format: physicochemical. Conditions: pH 7.5, 10 µM.
Series [3] addresses T1, DNA repair protein RAD52 homolog. The series is described as follows: Inhibition of RAD52 (unknown origin) assessed as effect on RAD52-mediated annealing of complementary oligonucleotides using T-28 ssDNA substrate by FRET assay.
Series [4] concerns the target T2, DNA repair protein RAD52 homolog (Homo sapiens) (UniProt P43351).
T2 sequence (whole entry): T1 sequence (P43351 whole entry)
The experiment in a line: Inhibition of RAD52 (unknown origin) assessed as reduction in RAD52-dsDNA interaction by FRET assay.

For series [5], the species on record is Homo sapiens. The series is described as follows: Binding affinity to RPA (unknown origin) assessed as effect on RPA-ssDNA interaction by water-logsy NMR method.
Series [6] concerns the target T2, DNA repair protein RAD52 homolog (Homo sapiens). The experiment in a line: Binding affinity to RAD52 (unknown origin) by water-logsy NMR method.
For series [7], the species on record is Homo sapiens. The series is described as follows: Binding affinity to RPA (unknown origin) by water-logsy NMR method.
For series [8], the species on record is Homo sapiens. The series is described as follows: Binding affinity to RPA (unknown origin) assessed as effect on RPA-ssDNA interaction at 20 uM by water-logsy NMR method.
Series [9] deals with T2, DNA repair protein RAD52 homolog (Homo sapiens). The experiment in a line: Inhibition of RAD52 in checkpoint deficient HU-treated in hTERT-immortalized wild-type human GM01604 fibroblasts assessed as inhibiting RAD52-MUS81-dependent DSBs at stalled replication forks in presence of […] by neutral comet assay.
Series [10] has the same target. The experiment in a line: Inhibition of RAD52 in checkpoint deficient HU-treated in hTERT-immortalized wild-type human GM01604 fibroblasts assessed as decrease in MUS81/EME1/RAD52-dependent DSB formation by measuring mean tail moment at 500 nM in presence of […] by neutral comet assay.
For series [11] the target is unchanged. The series is described as follows: Inhibition of RAD52 in hTERT-immortalized wild-type human GM01604 fibroblasts with MUS81 knockdown assessed as potentiation of HU and UCN01-induced cell death by Live/Dead assay.
Series [12] shares this target. The series is described as follows: Effect on oligomeric ring of RAD52 (unknown origin) by dynamic light scattering assay.
The target is the same in series [13]. The series is described as follows: Inhibition of RAD52 in hTERT-immortalized wild-type human GM01604 fibroblasts with BRCA2 knockdown assessed as potentiation of HU and UCN01-induced cell death by Live/Dead assay.
The species entered for series [14] is Homo sapiens. The experiment in a line: Inhibition of RAD52 (unknown origin) interaction with RPA (unknown origin).
In series [15] the target is T2, DNA repair protein RAD52 homolog (Homo sapiens). The experiment in a line: Inhibition of RAD52 in hTERT-immortalized wild-type human GM01604 fibroblasts in presence of BRCA2 siRNA NA RAD52 siRNA assessed as potentiation of HU-induced cell death by Live/Dead assay relative to control.
The target is the same in series [16]. The experiment in a line: Binding affinity to RAD52 (unknown origin) at 20 uM by water-logsy NMR method.
The species entered for series [17] is Homo sapiens. The series is described as follows: Binding affinity to RPA (unknown origin) at 20 uM by water-logsy NMR method.
Series [18] has as its target T2, DNA repair protein RAD52 homolog (Homo sapiens). The series is described as follows: Inhibition of RAD52 in checkpoint deficient HU-treated in hTERT-immortalized wild-type human GM01604 fibroblasts assessed as decrease in MUS81/EME1/RAD52-dependent DSB formation by measuring mean tail moment in presence of […] by neutral comet assay.
Series [19] is filed under the species Homo sapiens. The series is described as follows: Induction of anaphase bridge accumulation in checkpoint deficient HU-treated in hTERT-immortalized wild-type human GM01604 cells assessed as decrease in MUS81/EME1/RAD52-dependent DSB formation by measuring mean tail moment in presence of […] by neutral comet assay. Format: functional.
Series [20] concerns the target T2, DNA repair protein RAD52 homolog (Homo sapiens). The experiment in a line: Inhibition of RAD52 in hTERT-immortalized wild-type human GM01604 fibroblasts assessed as cell death at 1 uM relative to control. Also noted: scale not given: the % may be the effect or the level left.
For series [21] the target is unchanged. The experiment in a line: Inhibition of RAD52 in checkpoint deficient in hTERT-immortalized wild-type human GM01604 fibroblasts assessed as decrease in MUS81/EME1/RAD52-dependent DSB formation by measuring mean tail moment in presence of […] in presence of RAD52 siRNA by neutral comet assay.
For series [22] the target is unchanged. The series is described as follows: Inhibition of RAD52 (unknown origin) assessed as reduction in RAD52-ssDNA interaction using Cy3-dT30-Cy5 ssDNA in presence of 0.01% Triton-X100 by FRET assay.
The target is the same in series [23]. The experiment in a line: Induction of protein aggregation of RAD52 (unknown origin) by dynamic light scattering assay.
The species named for series [24] is Homo sapiens. The series is described as follows: Binding affinity to RPA (unknown origin) assessed as effect on RPA-ssDNA interaction at 40 uM by water-logsy NMR method.
For series [25], the species on record is Homo sapiens. The series is described as follows: Binding affinity to RPA (unknown origin) at 40 uM by water-logsy NMR method.
Series [26] in a line: Solubility in DMSO at 25 mM. Format: physicochemical. To be noted: 25000 µM.
The nature of series [27]: Solubility in 30 mM Tris-acetate buffer pH 7.5 in presence of 1 mM DTT at 115 uM. Conditions: pH 7.5, 115 µM. The series is classed as physicochemical.

`CCOc1cc(C(Nc2cc(C)ccn2)c2ccc3ccc(C)nc3c2O)ccc1OC` (stereo not drawn): the IC50 result in series [1] is “Nd(Insoluble)”. Also, the solubility result in [2] is given as “Insoluble”.
Regarding `NCCc1cc(O)c(O)cc1O` [OXIDOPAMINE], the IC50 entry in [3] is “Not Active”.
Regarding `CN(C)[C@@H]1C(O)=C(C(=O)NCN2CCCC2)C(=O)[C@@]2(O)C(O)=C3C(=O)c4c(O)cccc4[C@@](C)(O)[C@H]3C[C@@H]12` [ROLITETRACYCLINE], the IC50 result in series [3] is given as “Not Active”.
Turning to `CC(C)(O)C1Cc2cc3ccc(=O)oc3cc2O1` (stereo not drawn), in series [1], the IC50 result is “Not Active”.
Take `O=C(O[C@@H]1O[C@@H]2COC(=O)c3cc(O)c(O)c(O)c3-c3c(cc(O)c(O)c3O)C(=O)O[C@H]([C@H]1O)[C@@H]2O)c1cc(O)c(O)c(O)c1`: the inhibition result in series [4] is “inactive”. The outcome in the series listed under Homo sapiens [5] was inactive. Besides, the result (in [6]; in the series listed under Homo sapiens [7]) was Active.
In the case of `CC1(C)C(=O)C=C[C@@]2(C)C1=C(O)C(=O)[C@]1(C)[C@@H]2CC[C@@]2(C)[C@H](c3ccoc3)C[C@H]3O[C@]321` [CEDRELONE], the IC50 entry in [3] is on record as “Not Active”.
Regarding `Oc1cc(O)c2c(c1)O[C@H](c1cc(O)c(O)c(O)c1)[C@H](O)C2`, the result (in the series listed under Homo sapiens [8]; in series [12]; in the series listed under Homo sapiens [17]; in the series filed under Homo sapiens [19]; in [23]) was inactive. For the same molecule, the inhibition result in series [9], in series [10], in series [11], in [13], in [15] and in series [21] was “Active” in each case. Further, in series [22], the inhibition result is “Active”. For the same molecule, the inhibition result in the series filed under Homo sapiens [14] was “inactive”. Moreover, the result in [16] was Active. For the same molecule, the inhibition result in [18] was “Dose-dependent effect”. The Activity in series [20] came to 40%.
In the case of `O=C(O[C@@H]1Cc2c(O)cc(O)cc2O[C@@H]1c1cc(O)c(O)c(O)c1)c1cc(O)c(O)c(O)c1`, the inhibition entry in [9], in series [10], in series [21] and in series [22] was “Active” each time. Also, the result (in the series listed under Homo sapiens [24]; in [12]; in the series filed under Homo sapiens [19]; in series [23]) was inactive. Further, the outcome in the series listed under Homo sapiens [25] was Active. For the same molecule, in the series filed under Homo sapiens [14], the inhibition entry is “inactive”. The inhibition entry in series [18] was “Dose-dependent effect”.
On to `CCOc1ccccc1NC(=O)c1c(NC(=O)Cc2ccc(OC)cc2)sc2c1CCC2`, for which the IC50 result in [1] was “Nd(Insoluble)”. Besides, the solubility result in series [26] is “Insoluble”.
As to `Oc1cc(O)c2c(c1)O[C@H](c1ccc(O)c(O)c1)[C@H](O)C2` [(-)-EPICATECHIN], the IC50 entry in series [3] is reported as “Not Active”.
On to `O=c1c2ccccc2nc(CSc2[nH]cnc3ncnc2-3)n1-c1cccc(C(F)(F)F)c1`, for which the solubility entry in series [27] is “Insoluble”. Also, the IC50 result in series [1] is given as “Nd(Insoluble)”.
Consider `COc1cc(N)c(Cl)cc1C(=O)N[C@H]1CCN(CCCOc2ccc(F)cc2)C[C@H]1OC.O`, for which, in [3], the IC50 result is listed as “Not Active”.
